Results from ChEMBL document CHEMBL5143734, “Seco-Lupane Triterpene Derivatives Induce Ferroptosis through GPX4/ACSL4 Axis and Target Cyclin D1 to Block the Cell Cycle” (J Med Chem, 2022).

What was measured:
Assay type in all cases: functional, cell-based
[1] = test system: MCF7; assay: Cytotoxicity against human MCF7 cells assessed as reduction in cell viability by CCK-8 assay
[2] = test system: A549; assay: Cytotoxicity against human A549 cells assessed as reduction in cell viability by CCK-8 assay
[3] = test system: HepG2; assay: Cytotoxicity against human HepG2 cells assessed as reduction in cell viability by CCK-8 assay
[4] = test system: PC-3M; assay: Cytotoxicity against human PC-3M cells assessed as reduction in cell viability by CCK-8 assay
[5] = test system: PANC-1; assay: Cytotoxicity against human PANC-1 cells assessed as reduction in cell viability by CCK-8 assay

Structure (SMILES)	IC50 [1] [µM]	IC50 [2] [µM]	IC50 [3] [µM]	IC50 [4] [µM]	IC50 [5] [µM]
C=C(C)[C@@H]1CC[C@]2(C(=O)OCCCn3cnc(C)c3)CC[C@]3(C)[C@H](C[C@@H](O)[C@@H]4[C@@]5(C)C(CC(=O)OC)OC(C)(C)C5CC[C@]43C)[C@@H]12 (stereo not given in full)	71.9	31.5	21.6	30.6	49.2
C=C(C)[C@@H]1CC[C@]2(C(=O)OCCCCCCn3ccnc3C)CC[C@]3(C)[C@H](C[C@H]4OC(=O)C[C@@H](O)[C@]5(C)[C@@H]4[C@@]3(C)CC[C@H]5C(=C)C)[C@@H]12	76.2	18.9	12.9	14	17.9
C=C(C)[C@@H]1CC[C@]2(C(=O)OCCCCCCn3ccnc3CC)CC[C@]3(C)[C@H](C[C@@H](O)[C@@H]4[C@@]5(C)C(CC(=O)OC)OC(C)(C)C5CC[C@]43C)[C@@H]12 (stereo not given in full)	34.5	24.1	16.9	19.6	18.5
C=C(C)[C@@H]1CC[C@]2(C(=O)OCCCCn3ccnc3)CC[C@]3(C)[C@H](C[C@H]4OC(=O)C[C@@H](O)[C@]5(C)[C@@H]4[C@@]3(C)CC[C@H]5C(=C)C)[C@@H]12	84.4	32.7	20.9	28.2	50.1
C=C(C)[C@@H]1CC[C@]2(C(=O)OCCCn3ccnc3C)CC[C@]3(C)[C@H](C[C@H]4OC(=O)C[C@@H](O)[C@]5(C)[C@@H]4[C@@]3(C)CC[C@H]5C(=C)C)[C@@H]12	46.8	21.5	14.6	16	24.8
C=C(C)[C@@H]1CC[C@]2(C(=O)OCCCn3cc(CCN)c4ccccc43)CC[C@]3(C)[C@H](C[C@@H](O)[C@@H]4[C@@]5(C)C(CC(=O)OC)OC(C)(C)C5CC[C@]43C)[C@@H]12 (stereo not given in full)	8.05	7.67	2.51	7.6	7.04
C=C(C)[C@@H]1CC[C@]2(C(=O)OCCCn3ccnc3)CC[C@]3(C)[C@H](C[C@@H](O)[C@@H]4[C@@]5(C)C(CC(=O)OC)OC(C)(C)C5CC[C@]43C)[C@@H]12 (stereo not given in full)	73.2	34.8	27.2	35.6	56.5
C=C(C)[C@@H]1CC[C@]2(C(=O)OCCCCCn3ccnc3CC)CC[C@]3(C)[C@H](C[C@H]4OC(=O)C[C@@H](O)[C@]5(C)[C@@H]4[C@@]3(C)CC[C@H]5C(=C)C)[C@@H]12	50.2	14.3	6.1	12.5	12.8
C=C(C)[C@@H]1CC[C@]2(C(=O)O)CC[C@]3(C)[C@H](C[C@H]4OC(=O)C[C@@H](O)[C@]5(C)[C@@H]4[C@@]3(C)CC[C@H]5C(=C)C)[C@@H]12	> 200	145	> 200	134	> 200
C=C(C)[C@@H]1CC[C@]2(C(=O)OCCCCn3cnc(C)c3)CC[C@]3(C)[C@H](C[C@@H](O)[C@@H]4[C@@]5(C)C(CC(=O)OC)OC(C)(C)C5CC[C@]43C)[C@@H]12 (stereo not given in full)	65.6	35.4	19.9	25	38.9
C=C(C)[C@@H]1CC[C@]2(C(=O)OCCCCCn3cnc(C)c3)CC[C@]3(C)[C@H](C[C@@H](O)[C@@H]4[C@@]5(C)C(CC(=O)OC)OC(C)(C)C5CC[C@]43C)[C@@H]12 (stereo not given in full)	60.8	28.5	14.1	30.1	33.2
C=C(C)[C@@H]1CC[C@]2(C(=O)OCCCCCCCCCCn3cnc(C)c3)CC[C@]3(C)[C@H](C[C@H]4OC(=O)C[C@@H](O)[C@]5(C)[C@@H]4[C@@]3(C)CC[C@H]5C(=C)C)[C@@H]12	35.8	16.7	5.79	13.9	9.92
C=C(C)[C@@H]1CC[C@]2(C(=O)OCCCCCCn3cncn3)CC[C@]3(C)[C@H](C[C@H]4OC(=O)C[C@@H](O)[C@]5(C)[C@@H]4[C@@]3(C)CC[C@H]5C(=C)C)[C@@H]12	103	24.6	23.8	56	19.5
C=C(C)[C@@H]1CC[C@]2(C(=O)OCCCn3cnc(C)c3)CC[C@]3(C)[C@H](C[C@H]4OC(=O)C[C@@H](O)[C@]5(C)[C@@H]4[C@@]3(C)CC[C@H]5C(=C)C)[C@@H]12	48.6	39.5	35.3	18.5	83.8
C=C(C)[C@@H]1CC[C@]2(C(=O)OCCCCCCCCCCn3ccnc3CC)CC[C@]3(C)[C@H](C[C@H]4OC(=O)C[C@@H](O)[C@]5(C)[C@@H]4[C@@]3(C)CC[C@H]5C(=C)C)[C@@H]12	30.9	15.1	4.36	13.9	9.93
C=C(C)[C@@H]1CC[C@]2(C(=O)OCCCCCn3cncn3)CC[C@]3(C)[C@H](C[C@@H](O)[C@@H]4[C@@]5(C)C(CC(=O)OC)OC(C)(C)C5CC[C@]43C)[C@@H]12 (stereo not given in full)	81.6	57.9	37.2	32.3	90
C=C(C)[C@@H]1CC[C@]2(C(=O)OCCCn3cc(CCN)c4ccccc43)CC[C@]3(C)[C@H](C[C@H]4OC(=O)C[C@@H](O)[C@]5(C)[C@@H]4[C@@]3(C)CC[C@H]5C(=C)C)[C@@H]12	11.8	7.21	1.78	6.28	9.59
C=C(C)[C@@H]1CC[C@]2(C(=O)OCCCCCBr)CC[C@]3(C)[C@H](C[C@H]4OC(=O)C[C@@H](O)[C@]5(C)[C@@H]4[C@@]3(C)CC[C@H]5C(=C)C)[C@@H]12	56.1	19.8	14.3	14.5	43.1
C=C(C)[C@@H]1CC[C@]2(C(=O)OCCCCn3ccnc3)CC[C@]3(C)[C@H](C[C@@H](O)[C@@H]4[C@@]5(C)C(CC(=O)OC)OC(C)(C)C5CC[C@]43C)[C@@H]12 (stereo not given in full)	75.2	36.7	26	44.3	53.4
C=C(C)[C@@H]1CC[C@]2(C(=O)OCCCCCn3ccnc3C)CC[C@]3(C)[C@H](C[C@@H](O)[C@@H]4[C@@]5(C)C(CC(=O)OC)OC(C)(C)C5CC[C@]43C)[C@@H]12 (stereo not given in full)	53.8	34.5	20.2	37.8	43.1
C=C(C)[C@@H]1CC[C@]2(C(=O)O)CC[C@]3(C)[C@H](C[C@@H](O)[C@@H]4[C@@]5(C)C(CC(=O)OC)OC(C)(C)C5CC[C@]43C)[C@@H]12 (stereo not given in full)	> 200	> 200	> 200	103	> 200
C=C(C)[C@@H]1CC[C@]2(C(=O)OCCCCCCBr)CC[C@]3(C)[C@H](C[C@@H](O)[C@@H]4[C@@]5(C)C(CC(=O)OC)OC(C)(C)C5CC[C@]43C)[C@@H]12 (stereo not given in full)	73	45.5	22.2	29	37.5
C=C(C)[C@@H]1CC[C@]2(C(=O)OCCCn3ccnc3C)CC[C@]3(C)[C@H](C[C@@H](O)[C@@H]4[C@@]5(C)C(CC(=O)OC)OC(C)(C)C5CC[C@]43C)[C@@H]12 (stereo not given in full)	69.5	24.9	22.6	34.4	50.6
C=C(C)[C@@H]1CC[C@]2(C(=O)OCCCCCCCCCCn3cc(CCN)c4ccccc43)CC[C@]3(C)[C@H](C[C@H]4OC(=O)C[C@@H](O)[C@]5(C)[C@@H]4[C@@]3(C)CC[C@H]5C(=C)C)[C@@H]12	5.48	6.59	1.68	5.69	5.59
C=C(C)[C@@H]1CC[C@]2(C(=O)OCCCn3ccnc3CC)CC[C@]3(C)[C@H](C[C@H]4OC(=O)C[C@@H](O)[C@]5(C)[C@@H]4[C@@]3(C)CC[C@H]5C(=C)C)[C@@H]12	47	21.2	16.4	12.3	26.9
C=C(C)[C@@H]1CC[C@]2(C(=O)OCCCCn3cc(CCN)c4ccccc43)CC[C@]3(C)[C@H](C[C@H]4OC(=O)C[C@@H](O)[C@]5(C)[C@@H]4[C@@]3(C)CC[C@H]5C(=C)C)[C@@H]12	11.7	6.72	1.02	6.64	8.73
C=C(C)[C@@H]1CC[C@]2(C(=O)OCCCCBr)CC[C@]3(C)[C@H](C[C@@H](O)[C@@H]4[C@@]5(C)C(CC(=O)OC)OC(C)(C)C5CC[C@]43C)[C@@H]12 (stereo not given in full)	82	46	27.6	53.3	72.8
C=C(C)[C@@H]1CC[C@]2(C(=O)OCCCCn3ccnc3CC)CC[C@]3(C)[C@H](C[C@@H](O)[C@@H]4[C@@]5(C)C(CC(=O)OC)OC(C)(C)C5CC[C@]43C)[C@@H]12 (stereo not given in full)	40.3	28.5	15.7	25.9	31.5
C=C(C)[C@@H]1CC[C@]2(C(=O)OCCCCn3cncn3)CC[C@]3(C)[C@H](C[C@H]4OC(=O)C[C@@H](O)[C@]5(C)[C@@H]4[C@@]3(C)CC[C@H]5C(=C)C)[C@@H]12	46.2	31.3	110	18.1	60.5
C=C(C)[C@@H]1CC[C@]2(C(=O)OCCCCCn3cncn3)CC[C@]3(C)[C@H](C[C@H]4OC(=O)C[C@@H](O)[C@]5(C)[C@@H]4[C@@]3(C)CC[C@H]5C(=C)C)[C@@H]12	108	18.7	38.3	54.3	41.6
